Assay results taken from patent US4684620A, “Cyclic polypeptides having mu-receptor specificity” (Gibson-Stephens Neuropharmaceuticals, Inc., priority 1984, dated 1987).
Positions of bridges follow the written chain, without caps; N, C: chain ends. Non-standard residues stand in square brackets, D forms with d. Residues, ends and D or L forms follow the SMILES beside them. Asu = N[C@@H](CCCCCC(=O)O)C(=O)O; dPhg = N[C@@H](C(=O)O)c1ccccc1; Pen = CC(C)(S)[C@H](N)C(=O)O

What was measured:
[1] = target: T1, δ-opiate receptors (Rattus norvegicus, UniProt P33533); test: [3H]DADLE receptor binding to rat brain homogenates; conditions: for IC50: 1 nM [3H]DADLE
T1 construct: Adult Sprague-Dawly rats (150-200g) were killed by decapitation; The brain was rapidly removed and homogenized; from tissue; host or cells: rat brain membranes (Sprague-Dawley)
Description: (§1) Adult Sprague-Dawly rats (150-200g) were killed by decapitation. The brain was rapidly removed and homogenized (10% wt/vol in 0.32 M sucrose in a glass homogenizer with a motor driven teflon pestle. The homogenate was then centrifuged at 43,000×g for 10 min and the resulting pellet was resuspended in 50 mM Trisma buffer (pH 7.4 at 25° C.) containing 5 mM MgCl2, 2 mg/ml BSA and 20 mg/ml of bacitracin, using a Polytron homogenizer (15 sec, setting 5). The centrifugation and resuspension step was repeated once.
(§2) For all the inhibition studies, rat brain plasma membranes (100 μl ) were incubated at 25° C. for 60 min in a total of 1.0 ml of 50 mM Trisma buffer containing 220,000 dpm ^125 I-CGP 23,996. See Czernik, A. J. and Petrack, G., J. Biol. Chem. 258,5525-5530 (1983) which is herein specifically incorporated by reference. 1 nM [^3 H-]naloxone (42.3 Ci/mmol, New England Nuclear) or 1 nM [^3 H]DADLE ([D-Ala^2, D-Ala^5 ]enkephalin), [^3 H-3'5'-Tyr]DADLE, 43 Ci/mmol, New England Nuclear, and at least nine concentrations of our synthetic analogues. All incubations were done in duplicate and each compound was tested at least five times. The concentration of test compounds was determined by quantitative amino acid analysis or from published molar extinction coefficients. […] The data were analyzed using nonlinear least squares regression analysis.

[2] = target: T2, mu opioid receptor (Rattus norvegicus, UniProt P33535); test: [3H]naloxone receptor binding to rat brain homogenates; conditions: for IC50: 1 nM [3H]naloxone
T2 construct: Adult Sprague-Dawly rats (150-200g) were killed by decapitation; The brain was rapidly removed and homogenized; from tissue; host or cells: rat brain membranes (Sprague-Dawley)
Description: as §1, §2

[3] = Partition coefficient, octanol-water; assay type: physicochemical; conditions: read-out: Partition Coefficient, Octanol-Water, log P
[4] = target: T3, delta-type opiate receptors (Mus musculus, UniProt P32300); test: Mouse vas deferens (MVD) test, electrically stimulated contractions, antagonism of DPDPE
T3 construct: from tissue; host or cells: mouse vas deferens
Description: (§3) The compounds of the present invention were tested for their ability to inhibit electrically stimulated muscle contractions in the guinea pig ileum (GPI) assay and in the mouse vas deferens (MVD) assay.
The mouse vasa deferentia tests were conducted as follows: vas deferens of male mice were placed in a 60 ml tissue bath and attached to a force transducer. Contractions were induced by electrical stimulation. […] Percent inhibition was calculated.

[5] = tested on: mu-type opiate receptors; test: Guinea pig ileum (GPI) test, electrically stimulated contractions, antagonism of morphiceptin; conditions: morphiceptin alone
Description: as §3
The tests in the guinea pig ileum were conducted as follows: strips of longitudinal muscle with adhering myenteric plexus were prepared from nonterminal ilea of guinea pigs and attached to a force transducer in a 60 ml isolated organ bath. Contractions were elicited by electrical stimulation with a Grass S44D stimulator.

T2 sequence (P33535 whole entry): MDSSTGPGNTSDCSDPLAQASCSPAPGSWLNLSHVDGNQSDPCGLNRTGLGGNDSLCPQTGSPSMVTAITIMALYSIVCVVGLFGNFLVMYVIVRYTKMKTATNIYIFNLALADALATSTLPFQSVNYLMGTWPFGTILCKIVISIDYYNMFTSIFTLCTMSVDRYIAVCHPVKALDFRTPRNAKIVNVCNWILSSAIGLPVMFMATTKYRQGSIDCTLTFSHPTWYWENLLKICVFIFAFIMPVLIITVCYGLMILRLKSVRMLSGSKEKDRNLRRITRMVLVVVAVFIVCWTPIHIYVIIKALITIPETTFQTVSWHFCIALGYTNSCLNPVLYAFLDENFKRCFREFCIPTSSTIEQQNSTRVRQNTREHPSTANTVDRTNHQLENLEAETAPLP
T1 sequence (P33533 whole entry): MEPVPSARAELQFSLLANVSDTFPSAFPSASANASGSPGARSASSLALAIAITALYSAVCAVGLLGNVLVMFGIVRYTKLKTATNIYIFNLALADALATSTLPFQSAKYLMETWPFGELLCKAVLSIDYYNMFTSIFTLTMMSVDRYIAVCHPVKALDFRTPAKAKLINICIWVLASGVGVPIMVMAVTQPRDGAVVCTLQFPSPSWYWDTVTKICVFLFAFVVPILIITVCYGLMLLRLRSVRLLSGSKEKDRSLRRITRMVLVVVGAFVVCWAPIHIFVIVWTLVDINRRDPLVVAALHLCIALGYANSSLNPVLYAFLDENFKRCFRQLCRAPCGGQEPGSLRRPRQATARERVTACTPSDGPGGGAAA
T3 sequence (P32300 whole entry): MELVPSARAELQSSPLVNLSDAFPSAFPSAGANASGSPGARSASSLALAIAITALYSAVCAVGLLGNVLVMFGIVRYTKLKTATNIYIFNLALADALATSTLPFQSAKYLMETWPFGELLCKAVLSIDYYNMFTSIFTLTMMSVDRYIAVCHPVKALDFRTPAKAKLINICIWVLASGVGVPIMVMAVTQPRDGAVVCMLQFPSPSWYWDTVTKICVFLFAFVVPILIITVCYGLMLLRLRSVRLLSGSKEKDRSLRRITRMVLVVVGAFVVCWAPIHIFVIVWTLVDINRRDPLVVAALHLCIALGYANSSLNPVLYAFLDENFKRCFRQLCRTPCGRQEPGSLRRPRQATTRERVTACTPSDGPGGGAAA

Compound	IC50 [1] [µM]	IC50 [2] [µM]	logP [3]	further results
C[C@@H](O)[C@H](NC(=O)[C@@H]1CSSC(C)(C)[C@H](NC(=O)[C@H](N)Cc2ccccc2)C(=O)N[C@@H](Cc2ccccc2)C(=O)N[C@H](Cc2c[nH]c3ccccc23)C(=O)N[C@@H](CCCCN)C(=O)N[C@@H]([C@@H](C)O)C(=O)N1)C(=O)O [drawing 32]	38.1	61	–	–
C[C@@H](O)[C@H](NC(=O)[C@H]1NC(=O)[C@H]([C@@H](C)O)NC(=O)[C@H](CCCCN)NC(=O)[C@@H](Cc2c[nH]c3ccccc23)NC(=O)[C@H](Cc2ccccc2)NC(=O)[C@@H](NC(=O)[C@H](N)Cc2ccccc2)C(C)(C)SSC1(C)C)C(=O)O [Example V]	–	–	0	–
C[C@@H](O)[C@H](NC(=O)[C@H]1NC(=O)[C@H]([C@@H](C)O)NC(=O)[C@H](CCCCN)NC(=O)[C@@H](Cc2c[nH]c3ccccc23)NC(=O)[C@H](Cc2ccc(O)cc2)NC(=O)[C@@H](NC(=O)[C@H](N)Cc2ccccc2)CSSC1(C)C)C(N)=O [drawing 24]	0.952	0.0035	–	–
C[C@@H](O)[C@H](NC(=O)[C@@H]1CSSC(C)(C)[C@H](NC(=O)[C@H](N)c2ccccc2)C(=O)N[C@@H](Cc2ccccc2)C(=O)N[C@H](Cc2c[nH]c3ccccc23)C(=O)N[C@@H](CCCCN)C(=O)N[C@@H]([C@@H](C)O)C(=O)N1)C(=O)O [VIII] (H-[dPhg][Pen]F[dW]KTCT-OH; disulfide 2-7)	–	–	-0.57	–
C[C@@H](O)[C@H](NC(=O)[C@H]1NC(=O)[C@H]([C@@H](C)O)NC(=O)[C@H](CCCCN)NC(=O)[C@@H](Cc2c[nH]c3ccccc23)NC(=O)[C@H](Cc2ccc(O)cc2)NC(=O)[C@@H](NC(=O)[C@H](N)Cc2ccccc2)CSSC1(C)C)C(=O)O [Example 1]	–	–	0.7	–
C[C@@H](O)[C@H](NC(=O)[C@H]1NC(=O)[C@H]([C@@H](C)O)NC(=O)[C@H](CCCCN)NC(=O)[C@@H](Cc2c[nH]c3ccccc23)NC(=O)[C@H](Cc2ccc(O)cc2)NC(=O)[C@@H](NC(=O)[C@H](N)Cc2ccccc2)CSSC1(C)C)C(N)=O [drawing 41]	–	–	–	Percent inhibition of contractions ([4]; DPDPE 1 nM plus 1000 nM analog): 13 ± 3%; Percent inhibition of contractions ([4]; DPDPE 3 nM plus 1000 nM analog): 28 ± 4%; Percent inhibition of contractions ([4]; DPDPE 10 nM plus 1000 nM analog): 48 ± 8%; Percent inhibition of contractions ([4]; DPDPE 30 nM plus 1000 nM analog): 73 ± 9%; Percent inhibition of contractions ([4]; DPDPE 100 nM plus 1000 nM analog): 91 ± 5%; Percent inhibition of contractions ([4]; DPDPE 300 nM plus 1000 nM analog): 97 ± 1%
NC(=O)[C@@H]1CCCN1C(=O)[C@H](Cc1ccccc1)NC(=O)[C@@H]1CCCN1C(=O)[C@@H](N)Cc1ccc(O)cc1 [Morphiceptin] (H-YPFP-NH2)	–	–	–	Percent inhibition of contractions ([5]; 300 nM): 28 ± 3%; Percent inhibition of contractions ([5]; 1000 nM): 58 ± 3%; Percent inhibition of contractions ([5]; 3000 nM): 73 ± 4%; Percent inhibition of contractions ([5]; 10000 nM): 73 ± 3%
C[C@@H](O)[C@H](NC(=O)[C@H]1NC(=O)[C@H]([C@@H](C)O)NC(=O)[C@H](CCCCN)NC(=O)[C@@H](Cc2c[nH]c3ccccc23)NC(=O)[C@H](Cc2ccccc2)NC(=O)[C@@H](NC(=O)[C@H](N)Cc2ccccc2)CSSC1(C)C)C(N)=O [drawing 25]	1.1	0.0099	–	–
C[C@@H](O)[C@H](NC(=O)[C@H]1NC(=O)[C@H]([C@@H](C)O)NC(=O)[C@H](CCCCN)NC(=O)[C@@H](Cc2c[nH]c3ccccc23)NC(=O)[C@H](Cc2ccccc2)NC(=O)[C@@H](NC(=O)[C@H](N)Cc2ccccc2)CSSC1(C)C)C(=O)O [III]	–	–	-0.71	–
C[C@@H](O)[C@H](NC(=O)[C@@H]1CSSC[C@H](NC(=O)[C@H](N)Cc2ccccc2)C(=O)N[C@@H](Cc2ccccc2)C(=O)N[C@H](Cc2c[nH]c3ccccc23)C(=O)N[C@@H](CCCCN)C(=O)N[C@@H]([C@@H](C)O)C(=O)N1)C(=O)O [II]	–	–	-0.77	–
C[C@@H](O)[C@@H]1NC(=O)[C@H](Cc2ccc(O)cc2)NC(=O)[C@H]([C@@H](C)O)NC(=O)[C@H](CCCCN)NC(=O)[C@H](Cc2c[nH]c3ccccc23)NC(=O)[C@H](Cc2ccccc2)NC(=O)[C@H](Cc2ccccc2)NC(=O)[C@H](CC(N)=O)NC(=O)[C@H](CCCCN)NC(=O)CCCCC[C@@H](C(=O)O)NC(=O)[C@H](CO)NC1=O [CGP 23,996, des-Ala^1,Gly^2-desamino-Cys3-[Tyr^11]-dicarba^3,14-somatostatin, reference compound] (KNFFWKTYTS[Asu]-OH; lactam N-11)	> 100	> 100	–	–
C[C@@H](O)[C@H](NC(=O)[C@H]1NC(=O)[C@H]([C@@H](C)O)NC(=O)[C@H](CCCCN)NC(=O)[C@@H](Cc2c[nH]c3ccccc23)NC(=O)[C@H](Cc2ccc(O)cc2)NC(=O)[C@@H](NC(=O)[C@H](N)Cc2ccccc2)CSSC1(C)C)C(=O)O [drawing 26]	3.76	0.293	–	–
C[C@@H](O)[C@H](NC(=O)[C@@H]1CSSC[C@H](NC(=O)[C@H](N)Cc2ccccc2)C(=O)N[C@@H](Cc2ccccc2)C(=O)N[C@H](Cc2c[nH]c3ccccc23)C(=O)N[C@@H](CCCCN)C(=O)N[C@@H]([C@@H](C)O)C(=O)N1)C(=O)O [drawing 31]	3.14	2.58	–	–
C[C@H](N)C(=O)NCC(=O)N[C@H]1CSSC[C@@H](C(=O)O)NC(=O)[C@H](CO)NC(=O)[C@H]([C@@H](C)O)NC(=O)[C@H](Cc2ccccc2)NC(=O)[C@H]([C@@H](C)O)NC(=O)[C@H](CCCCN)NC(=O)[C@H](Cc2c[nH]c3ccccc23)NC(=O)[C@H](Cc2ccccc2)NC(=O)[C@H](Cc2ccccc2)NC(=O)[C@H](CC(N)=O)NC(=O)[C@H](CCCCN)NC1=O [SOMATOSTATIN, somatostatin, reference compound]	–	–	–	[3H]DADLE nH [1]: 1.09; [3H]Naloxone nH [2]: 1.02
C[C@@H](O)[C@H](NC(=O)[C@@H]1CSSC(C)(C)[C@H](NC(=O)[C@H](N)Cc2ccccc2)C(=O)N[C@@H](Cc2ccccc2)C(=O)N[C@H](Cc2c[nH]c3ccccc23)C(=O)N[C@@H](CCCCN)C(=O)N[C@@H]([C@@H](C)O)C(=O)N1)C(=O)O [IV]	–	–	-0.22	–
C[C@@H](O)[C@H](NC(=O)[C@H]1NC(=O)[C@H]([C@@H](C)O)NC(=O)[C@H](CCCCN)NC(=O)[C@@H](Cc2c[nH]c3ccccc23)NC(=O)[C@H](Cc2ccc(O)cc2)NC(=O)[C@@H](NC(=O)[C@H](N)Cc2ccccc2)CSSC1(C)C)C(N)=O [Example VI]	–	–	-0.2	–
C[C@@H](O)[C@H](NC(=O)[C@H]1NC(=O)[C@H]([C@@H](C)O)NC(=O)[C@H](CCCCN)NC(=O)[C@@H](Cc2c[nH]c3ccccc23)NC(=O)[C@H](Cc2ccccc2)NC(=O)[C@@H](NC(=O)[C@H](N)Cc2ccccc2)CSSC1(C)C)C(=O)O [drawing 27]	5.42	0.926	–	–
C[C@@H](O)[C@H](NC(=O)[C@@H]1CSSC(C)(C)[C@H](NC(=O)[C@H](N)c2ccccc2)C(=O)N[C@@H](Cc2ccccc2)C(=O)N[C@H](Cc2c[nH]c3ccccc23)C(=O)N[C@@H](CCCCN)C(=O)N[C@@H]([C@@H](C)O)C(=O)N1)C(=O)O [drawing 28] (H-[dPhg][Pen]F[dW]KTCT-OH; disulfide 2-7)	13.5	2.5	–	–
CC(=O)N[C@@H](Cc1ccccc1)C(=O)N[C@H](Cc1c[nH]c2ccccc12)C(=O)N[C@@H](CCCCN)C(=O)N[C@H](C(=O)O)[C@@H](C)O [AcPhe --D-TrpLysThr, reference compound] (Ac-F[dW]KT-OH)	5.84	51.5	–	–
C[C@@H](O)[C@H](NC(=O)[C@H]1NC(=O)[C@H]([C@@H](C)O)NC(=O)[C@H](CCCCN)NC(=O)[C@@H](Cc2c[nH]c3ccccc23)NC(=O)[C@H](Cc2ccccc2)NC(=O)[C@@H](NC(=O)[C@H](N)Cc2ccccc2)CSSC1(C)C)C(N)=O [VII]	–	–	0.36	–
C[C@@H](O)[C@H](NC(=O)[C@@H]1CSSC(C)(C)[C@H](NC(=O)[C@H](N)Cc2ccccc2)C(=O)N[C@@H](Cc2ccc(O)cc2)C(=O)N[C@H](Cc2c[nH]c3ccccc23)C(=O)N[C@@H](CCCCN)C(=O)N[C@@H]([C@@H](C)O)C(=O)N1)C(=O)O	2.56	0.471	–	–
C[C@@H](O)[C@H](NC(=O)[C@H]1NC(=O)[C@H]([C@@H](C)O)NC(=O)[C@H](CCCCN)NC(=O)[C@@H](Cc2c[nH]c3ccccc23)NC(=O)[C@H](Cc2ccccc2)NC(=O)[C@@H](NC(=O)[C@H](N)Cc2ccccc2)C(C)(C)SSC1(C)C)C(=O)O [drawing 30]	11.1	8.27	–	–
